# Like-named read-outs stand apart in the source and are kept apart here.
# Tests used:
# [1] = biological target: T1, TET proteins responsible for tetracycline efflux (Class B tetracycline resistance determinant, strain D1-209) (Escherichia coli, UniProt P02980); experiment: biochemical; set-up: species or system E. coli; details: uptake at 2.5 minutes, about 4 μM 3H-tetracycline; read-out: IC50
# T1 construct: Everted vesicles, to which the TET proteins responsible for tetracycline efflux are attached; endogenous in cells; host or cells: E. coli strain D1-209 (everted membrane vesicles)
# E. coli ML308 = experiment: MIC of tetracycline susceptible strains, C5 esters; assay type: cell-based; details: E. coli ML308, alone
# S. aureus 450 = experiment: MIC of tetracycline susceptible strains, C5 esters; assay type: cell-based; details: S. aureus 450, alone
# E. faecalis ATCC 9790 = experiment: MIC of tetracycline susceptible strains, C5 esters; assay type: cell-based; details: E. faecalis ATCC 9790, alone
# E. coli D1-299 (Tet A) = assay type: cell-based;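 further: E. coli at roughly 5×10^5 cells/ml in L broth, analog and doxycycline alone or mixed in two-fold dilutions from 50 to under 1 µg/ml, 18 h at 37 °C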
# S. aureus 4250 (Tet K) = experiment: MIC/MLC chart, analog with and without doxycycline; assay type: cell-based
# E. faecalis 158 (Tet L) = experiment: MIC/MLC chart, analog with and without doxycycline; assay type: cell-based
# E. faecalis 211 (Tet M) = experiment: MIC/MLC chart, analog with and without doxycycline; assay type: cell-based;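 further: broth checkerboard of two-fold drug dilutions, alone and mixed with doxycycline, bacteria near 5×10^5 cells/ml, 18 h incubation at 37 °C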
# T1 sequence (P02980 whole entry): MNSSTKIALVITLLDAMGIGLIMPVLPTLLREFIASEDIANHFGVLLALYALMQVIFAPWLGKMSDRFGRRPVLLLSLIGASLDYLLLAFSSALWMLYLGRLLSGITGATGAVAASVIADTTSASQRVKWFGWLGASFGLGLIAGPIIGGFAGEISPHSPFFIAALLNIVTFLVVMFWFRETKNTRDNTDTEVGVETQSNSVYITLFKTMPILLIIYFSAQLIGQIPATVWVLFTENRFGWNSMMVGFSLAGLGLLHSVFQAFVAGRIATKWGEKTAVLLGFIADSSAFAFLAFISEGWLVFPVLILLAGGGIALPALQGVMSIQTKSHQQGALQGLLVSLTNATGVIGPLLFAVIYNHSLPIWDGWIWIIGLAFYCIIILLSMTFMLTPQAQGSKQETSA
substance,measurement,setting,value
13-propylthio-5-proprionate-6-deoxy-tetracycline [Cmpd 8],IC50,[1],1.4 µM
same,MIC,E. coli ML308,20 µg/mL
same,MIC,S. aureus 450,.3 µg/mL
same,MIC,E. faecalis ATCC 9790,2.5 µg/mL
same,growth / no growth (MIC) / killing (MLC) symbol,E. coli D1-299 (Tet A); analog 1.56 + doxy 1.55 μg/ml,+
same,growth / no growth (MIC) / killing (MLC) symbol,E. coli D1-299 (Tet A); analog 1.56 + doxy 3.1 μg/ml,+
same,growth / no growth (MIC) / killing (MLC) symbol,E. coli D1-299 (Tet A); analog 1.56 + doxy 6.2 μg/ml,+
same,growth / no growth (MIC) / killing (MLC) symbol,E. coli D1-299 (Tet A); analog 1.56 + doxy 12.3 μg/ml,◯
same,growth / no growth (MIC) / killing (MLC) symbol,E. coli D1-299 (Tet A); analog 3.12 + doxy 1.53 μg/ml,+
same,growth / no growth (MIC) / killing (MLC) symbol,E. coli D1-299 (Tet A); analog 3.12 + doxy 3.05 μg/ml,+
same,growth / no growth (MIC) / killing (MLC) symbol,E. coli D1-299 (Tet A); analog 3.12 + doxy 6.1 μg/ml,+
same,growth / no growth (MIC) / killing (MLC) symbol,E. coli D1-299 (Tet A); analog 6.25 + doxy 5.9 μg/ml,+
same,growth / no growth (MIC) / killing (MLC) symbol,E. coli D1-299 (Tet A); analog 6.25 + doxy 3.0. μg/ml,+
same,growth / no growth (MIC) / killing (MLC) symbol,E. coli D1-299 (Tet A); analog 6.25 + doxy […],+
same,growth / no growth (MIC) / killing (MLC) symbol,E. coli D1-299 (Tet A); analog 12.5 + doxy 2.8 μg/ml,+
same,growth / no growth (MIC) / killing (MLC) symbol,E. coli D1-299 (Tet A); analog 12.5 + doxy 5.5 μg/ml,+
same,growth / no growth (MIC) / killing (MLC) symbol,E. coli D1-299 (Tet A); analog 12.5 + doxy […],+
same,growth / no growth (MIC) / killing (MLC) symbol,E. coli D1-299 (Tet A); analog 25 + doxy 2.4 μg/ml,+
same,growth / no growth (MIC) / killing (MLC) symbol,E. coli D1-299 (Tet A); analog 25 + doxy 4.7 μg/ml,+
same,growth / no growth (MIC) / killing (MLC) symbol,E. coli D1-299 (Tet A); analog 25 + doxy […],+
same,growth / no growth (MIC) / killing (MLC) symbol,E. coli D1-299 (Tet A); analog 50 + doxy 1.56 μg/ml,+
same,growth / no growth (MIC) / killing (MLC) symbol,E. coli D1-299 (Tet A); analog 50 + doxy 3.12 μg/ml,+
same,growth / no growth (MIC) / killing (MLC) symbol,E. coli D1-299 (Tet A); analog 50 + doxy .78 μg/ml,+
same,growth / no growth (MIC) / killing (MLC) symbol,E. coli D1-299 (Tet A); analog .195 + doxy 1.56 μg/ml,+
same,growth / no growth (MIC) / killing (MLC) symbol,E. coli D1-299 (Tet A); analog .195 + doxy 3.12 μg/ml,+
same,growth / no growth (MIC) / killing (MLC) symbol,E. coli D1-299 (Tet A); analog .195 + doxy 6.25 μg/ml,+
same,growth / no growth (MIC) / killing (MLC) symbol,E. coli D1-299 (Tet A); analog .195 + doxy 12.5 μg/ml,+
same,growth / no growth (MIC) / killing (MLC) symbol,E. coli D1-299 (Tet A); analog .39 + doxy 1.56 μg/ml,+
same,growth / no growth (MIC) / killing (MLC) symbol,E. coli D1-299 (Tet A); analog .39 + doxy 3.12 μg/ml,+
same,growth / no growth (MIC) / killing (MLC) symbol,E. coli D1-299 (Tet A); analog .39 + doxy 6.25 μg/ml,+
same,growth / no growth (MIC) / killing (MLC) symbol,E. coli D1-299 (Tet A); analog .39 + doxy 12.5 μg/ml,+
same,growth / no growth (MIC) / killing (MLC) symbol,E. coli D1-299 (Tet A); analog .78 + doxy 1.56 μg/ml,+
same,growth / no growth (MIC) / killing (MLC) symbol,E. coli D1-299 (Tet A); analog .78 + doxy 3.12 μg/ml,+
same,growth / no growth (MIC) / killing (MLC) symbol,E. coli D1-299 (Tet A); analog .78 + doxy 6.23 μg/ml,+
same,growth / no growth (MIC) / killing (MLC) symbol,E. coli D1-299 (Tet A); analog .78 + doxy 12.4 μg/ml,+
same,growth / no growth (MIC) / killing (MLC) symbol,E. coli D1-299 (Tet A); analog alone 1.56 μg/ml,+
same,growth / no growth (MIC) / killing (MLC) symbol,E. coli D1-299 (Tet A); analog alone 3.12 μg/ml,+
same,growth / no growth (MIC) / killing (MLC) symbol,E. coli D1-299 (Tet A); analog alone 6.25 μg/ml,+
same,growth / no growth (MIC) / killing (MLC) symbol,E. coli D1-299 (Tet A); analog alone 12.5 μg/ml,+
same,growth / no growth (MIC) / killing (MLC) symbol,E. coli D1-299 (Tet A); analog alone 25.0 μg/ml,+
same,growth / no growth (MIC) / killing (MLC) symbol,E. coli D1-299 (Tet A); analog alone 50.00 μg/ml,+
same,growth / no growth (MIC) / killing (MLC) symbol,E. coli D1-299 (Tet A); analog alone .195 μg/ml,+
same,growth / no growth (MIC) / killing (MLC) symbol,E. coli D1-299 (Tet A); analog alone .39 μg/ml,+
same,growth / no growth (MIC) / killing (MLC) symbol,E. coli D1-299 (Tet A); analog alone .78 μg/ml,+
same,growth / no growth (MIC) / killing (MLC) symbol,S. aureus 4250 (Tet K); analog .195 + doxy 1.56 μg/ml,+
same,growth / no growth (MIC) / killing (MLC) symbol,S. aureus 4250 (Tet K); analog .195 + doxy 3.12 μg/ml,◯
same,growth / no growth (MIC) / killing (MLC) symbol,S. aureus 4250 (Tet K); analog alone .195 μg/ml,+
same,growth / no growth (MIC) / killing (MLC) symbol,E. faecalis 158 (Tet L); analog .195 + doxy 1.56 μg/ml,+
same,growth / no growth (MIC) / killing (MLC) symbol,E. faecalis 158 (Tet L); analog .195 + doxy 3.12 μg/ml,+
same,growth / no growth (MIC) / killing (MLC) symbol,E. faecalis 158 (Tet L); analog .39 + doxy 1.56 μg/ml,◯
same,growth / no growth (MIC) / killing (MLC) symbol,E. faecalis 158 (Tet L); analog .39 + doxy 3.12 μg/ml,◯
same,growth / no growth (MIC) / killing (MLC) symbol,E. faecalis 158 (Tet L); analog alone .195 μg/ml,+
same,growth / no growth (MIC) / killing (MLC) symbol,E. faecalis 158 (Tet L); analog alone .39 μg/ml,+
same,growth / no growth (MIC) / killing (MLC) symbol,E. faecalis 158 (Tet L); analog alone .78 μg/ml,+
same,growth / no growth (MIC) / killing (MLC) symbol,E. faecalis 211 (Tet M); analog 1.56 + doxy 1.55 μg/ml,+
same,growth / no growth (MIC) / killing (MLC) symbol,E. faecalis 211 (Tet M); analog 1.56 + doxy 3.1 μg/ml,+
same,growth / no growth (MIC) / killing (MLC) symbol,E. faecalis 211 (Tet M); analog 1.56 + doxy 6.2 μg/ml,+
same,growth / no growth (MIC) / killing (MLC) symbol,E. faecalis 211 (Tet M); analog 3.12 + doxy 1.53 μg/ml,◯
same,growth / no growth (MIC) / killing (MLC) symbol,E. faecalis 211 (Tet M); analog 3.12 + doxy 3.05 μg/ml,◯
same,growth / no growth (MIC) / killing (MLC) symbol,E. faecalis 211 (Tet M); analog .195 + doxy 1.56 μg/ml,+
same,growth / no growth (MIC) / killing (MLC) symbol,E. faecalis 211 (Tet M); analog .195 + doxy 3.12 μg/ml,+
same,growth / no growth (MIC) / killing (MLC) symbol,E. faecalis 211 (Tet M); analog .195 + doxy 6.25 μg/ml,+
same,growth / no growth (MIC) / killing (MLC) symbol,E. faecalis 211 (Tet M); analog .195 + doxy 12.5 μg/ml,+
same,growth / no growth (MIC) / killing (MLC) symbol,E. faecalis 211 (Tet M); analog .39 + doxy 1.56 μg/ml,+
same,growth / no growth (MIC) / killing (MLC) symbol,E. faecalis 211 (Tet M); analog .39 + doxy 3.12 μg/ml,+
same,growth / no growth (MIC) / killing (MLC) symbol,E. faecalis 211 (Tet M); analog .39 + doxy 6.25 μg/ml,+
same,growth / no growth (MIC) / killing (MLC) symbol,E. faecalis 211 (Tet M); analog .39 + doxy 12.5 μg/ml,+
same,growth / no growth (MIC) / killing (MLC) symbol,E. faecalis 211 (Tet M); analog .78 + doxy 1.56 μg/ml,+
same,growth / no growth (MIC) / killing (MLC) symbol,E. faecalis 211 (Tet M); analog .78 + doxy 3.12 μg/ml,+
same,growth / no growth (MIC) / killing (MLC) symbol,E. faecalis 211 (Tet M); analog .78 + doxy 6.23 μg/ml,+
same,growth / no growth (MIC) / killing (MLC) symbol,E. faecalis 211 (Tet M); analog alone 1.56 μg/ml,+
same,growth / no growth (MIC) / killing (MLC) symbol,E. faecalis 211 (Tet M); analog alone 3.12 μg/ml,◯
same,growth / no growth (MIC) / killing (MLC) symbol,E. faecalis 211 (Tet M); analog alone .195 μg/ml,+
same,growth / no growth (MIC) / killing (MLC) symbol,E. faecalis 211 (Tet M); analog alone .39 μg/ml,+
same,growth / no growth (MIC) / killing (MLC) symbol,E. faecalis 211 (Tet M); analog alone .78 μg/ml,+

# From US7414041B2 (Trustees Of Tufts College, priority 1991, dated 2008)
